# Ends that are not written are not given here.
# Columns and labels:
# [1] = system: CS40 anti-ManLAM monoclonal antibody; assay: ELISA competition vs. ManLAM for CS40 mAb; type: binding; details: 50 μg/ml of peptide
# Procedure: ELISA competition assay was performed as described [Kaur, D., et al. Microbiology 148:3049-3057 (2002)]. Briefly, plates were coated with 0.5 μg/well ManLAM. Plates were blocked as described above. The CS40 mAb (diluted 1:2000) was mixed with various concentrations of either phage particles in TBS/1% BSA (0-1×10^18 particles/well) or peptides in PBS/1% BSA (0-200 μg/well). […] After washing (PBS), the ELISA procedure was performed as described above. Samples were all tested in triplicate.
# [2] = system: CS40 mAb; assay: Direct peptide ELISA with CS40 mAb; type: binding
# [3] = system: IgG antibodies in sera of Mtb-infected mice; type: binding, BALB/c mice
# [4] = system: serum antibodies of TB patients; assay: ELISA of human TB patients' sera on ManLAM or B11 coated plates; type: binding
# From the text: Marchal (Pasteur Institute, Paris).
# [5] = system: THP-1 human monocyte cell line; assay: FITC-labeled peptide binding to THP-1 (FACS); type: cell-based
# Procedure: (§1) RAW 264.7 cells were grown in a 250-ml flask, washed 3 times in cold PBS, and harvested, THP-1 cells were grown to 10^6/ml in 250-ml flask, centrifuged at 3000 rpm for 10 min, then washed 3 times in cold PBS. Cells were then incubated for 15 min at 37° C., with the FITC-labeled peptide diluted 1:50, then washed 3 times in cold PBS. The fluorescence levels of 10,000 cell counts were determined by FACS (Becton Dickinson, Franklin Lakes, N.J.) and analyzed by CELLQuest™ software. Assay of competitive binding between D-mannose and the FITC-labeled B11 peptide was performed according to Nguyen and Hildreth [Nguyen, D. G., and Hildreth, J. E. Eur J Immunol 33:483-493 (2003)].
# [6] = system: RAW 264.7 macrophage cell line; assay: Cytokine secretion in RAW 264.7 cells (cytokine ELISA); type: cell-based, murine
# [7] = system: RAW 264.7 cell line; assay: Apoptosis of RAW 264.7 cells; type: cell-based, murine
# [8] = system: primary spleen cells; assay: Proliferation of primary spleen cells; type: cell-based, BALB/c mice
# [9] = system: LPS-induced symptoms; assay: LPS mice model; type: in vivo, BALB/c mice
# Procedure: Female BALB/c mice, 6-7 weeks old were injected i.p. with 150 μg LPS (Sigma) per mouse.
# Treatment with peptide was performed four days before LPS injection, (i.p. 200 μg peptide per mouse).
# [10] = system: allergic peritonitis; assay: OVA induced allergic peritonitis model; type: in vivo, BALB/c mice
# Procedure: For induction of allergic peritonitis, female BALB/c mice, 5-6 weeks old, were sensitized twice on days 1 and 7 by subcutaneous (s.c.) injection of 0.4 ml of a 0.9% solution of NaCl containing 100 μg ovalbumin (OVA) adsorbed on 1.6 mg Al(OH)3 (all Sigma) the mice received a second dose of the same s.c. injection. On day 11 Peritonitis was induced by the intraperitoneal (i.p.) injection of 0.4 ml of a solution containing 5 μg/ml OVA diluted in saline [Temkin V. et al., Cytokine. 24:74-80. (2003)]. Negative control group were sensitized with saline. On day 12 mice were sacrificed (24 h after challenge (peritonitis induction)), and the peritoneal cavity was washed with 5 ml of Tyrode buffer (3 mmol/L potassium chloride, 10 mmol/L sodium hydrogen carbonate, 20 mmol/L sodium chloride, 0.36 mmol/L sodium phosphate, 0.1% glucose (all Sigma)) containing 0.1% gelatin (TG buffer). Peritoneal lavage fluid was centrifuged (5 minutes, 150 g), supernatants were saved for cytokine ELISA, and cell pellets were re-suspended in 2 ml of TG buffer for eosinophil quantification. Cells were stained for 30 min. with Phycoerytrin (PE)-labeled anti-CCR3Ab (0.625 μg/ml; R&D systems, Abingdon, UK) and eosinophils were defined as cells expressing the eotaxin receptor CCR3 [Grimaldi et al., J Leukoc Biol. 65:846-53. (1999)] by FACS analysis.
# Mice treated with B11 peptide were treated i.p. with 200 μg/mouse 1 hour before sensitizations (Group-S), 1 hour before challenge (Group-C), and 1 hour before both sensitizations and challenge (Group-S+C).
# (§2) Cytokine levels in mouse sera, cell supernatants, peritoneum lavage, and BALF were assessed by ELISA tests using commercial pairs of antibodies and recombinant cytokines for TNFα IFN-γ, IL-10 and IL-4 (Pharmingen International, Oxford, UK), and IL-12 (Biosource International, Camarillo, Calif.) according to the manufacturer's instructions. The ranges of the sensitivities of the ELISA for the murine cytokines were 15-200 pg/ml for TNF-α, IFN-γ, IL-10, and IL-4, and 15-500 pg/ml for IL-12.
# [11] = system: allergic asthma; assay: OVA induced allergic asthma model; type: in vivo, mice
# Procedure: For the induction of allergic asthma, mice were sensitized with OVA (Grade V, Sigma) adsorbed to Al(OH)3 gel (Aldrich Chemical Company, Milwaukee, Wis.), using 8 mg OVA/2 ml gel/0.5 ml H2O, pH 7.0-7.5, given intraperitoneally on days 0 and 14. On days 24 and 27 mice were challenged (induction of allergic asthma) with OVA i.n. Negative control group were sensitized with saline. The sensitization and challenge protocol used is an adaptation of a reported procedure [Blyth D. et al., Am. J. Respir. Cell Mol. Biol., 14: 425-438. (1996)].
# Twenty-four hours after the second challenge mice were sacrificed. Bronchoalveolar lavage (BAL) was performed with PBS. Eosinophils in Bronchoalveolar lavage fluid (BALF) were detected as described above. Cytokine ELISA was performed to determine cytokine levels in BALF.
# Mice treated with B11 peptide were treated with 200 μg/mouse 2 days before sensitizations (Group-S i.p.), 2 days before challenges i.p. (Group-C i.p.), or 1 hour before challenge i.n. (Group-C i.n.) and 2 days both before sensitization and challenge (Group-S+C i.p.).
# Lung were excised and examined histologically and photographed after staining with haematoxylin and eosin.
# as §2
# [12] = system: TNBS induced colitis; assay: TNBS induced colitis; type: in vivo, C57BL/6 mice
# Procedure: In Specific pathogen-free male 4 month old C57BL/6 mice lightly anesthetized a 3.5F catheter was carefully inserted into the colon (4 cm proximal to the anus) administering 0.5 mg of the hapten reagent TNBS (Sigma) in 50% ethanol into the lumen of the colon at days 1 and 5. Animals were then kept in a vertical position for […] and returned to their cages. The mice were monitored for weight loss, behavior, appearance and diarrhea for 11 days. On day 11 mice were sacrificed and tested from macroscopic inflammation symptoms in the spleen, liver and colon [Neurath M. et al., J Exp Med. 182:1281-90. (1995)].
# Mice treated with B11 peptide were treated i.p. with 200 μg/mouse on days 1 and 5.
# [13] = system: LPS-induced symptoms; assay: LPS mice model; type: in vivo, BALB/c mice; details: B11 post-treatment, LPS 150 μg i.p.
# [14] = system: macrophage cell line RAW 264.7; assay: FITC-labeled peptide binding to RAW 264.7 (confocal microscopy, FACS); type: cell-based, murine
# Procedure: B11 peptide (50 μg) was conjugated to FITC (Biotium, Hayward, Calif.) as described by Sethi et al., [Sethi, K. K., et al. Cell Motil Cytoskeleton 52:231-241 (2002)]. For confocal microscopy, RAW 264.7 cells were grown in 8-well glass slides, Chamber Slide™ (Nunc), as described above. Cells were washed three times in cold PBS and incubated with the FITC-labeled mimotope for 5 min at 4° C. in serial dilutions of 1:2-1:100 in cold PBS. Slides were imaged immediately with a Zeiss 410 confocal laser scanning microscope.
# as §1
# [15] = Groups S, C and S+C vs Group OVA, 200 μg i.p.
substance,measurement,setting,value
ISLTEWSMWYRH (random phage display library) [B11 peptide],decrease in OD in competitive ELISA,[1],100%
same,binding to CS40 mAb by direct ELISA,[2],bound the CS40 mAb
same,IgG Abs in sera binding the coated antigen,[3],significantly higher than those of the naive mice
same,anti-peptide antibody titers in BCG-vaccinated individuals,[4]; BCG-vaccinated vs TB patients,significantly lower than in TB patients
same,titers of antigen-binding antibodies in sera of TB patients,[4]; TB patients vs healthy individuals,Significantly higher titers
same,binding to THP-1,[5],Binds
same,inhibition of IL-12 secretion,[6]; LPS-IFN-γ-activated RAW 264.7,20%
same,production of IL-12,[6]; non-activated RAW 264.7,not induced
same,production of IL-6,"[6]; non-activated RAW 264.7, data not shown",not induced
same,inhibition of apoptosis,[7]; LPS-IFN-γ-activated RAW 264.7,30%
same,induction of apoptosis,[7]; non-activated RAW 264.7,did not induce apoptosis
same,inhibition of proliferation,[8]; spleen cells of Mtb infected mice,40-50%
same,inhibition of proliferation,[8]; spleen cells of adjuvant stimulated mice,40-50%
same,inhibition of proliferation,[8]; spleen cells of naive mice,40-50%
same,State after LPS-B11 pre-treatment,[9]; 1 hr post LPS injection,healthy
same,State after LPS-B11 pre-treatment,[9]; 20 hr post LPS injection,Healthy
same,State after LPS-B11 pre-treatment,[9]; 48 hr post LPS injection,Healthy
same,"LPS symptoms (appearance, behavior, curing rate)",[9]; pre-treated i.p. 200 μg 4 days before LPS,milder LPS symptoms
same,eosonophil levels in peritoneum lavage,[10]; 200 μg one hour before challenge with OVA,as in the control group
same,IFN-γ levels in peritoneum lavage,[10]; [15],significantly lower
same,IL-10 levels in peritoneum lavage,[10]; [15],significantly lower
same,IL-12 levels in peritoneum lavage,[10]; [15],significantly lower
same,eosonophil levels in BALF,"[11]; S i.p., C i.p., S+C i.p. and C i.n. vs OVA mice, 200 μg, FACS",significantly lower
same,IL-12 in BALF,[11]; all mice treated i.p.,significantly lower
same,IL-10 in BALF,"[11]; i.n. before challenge, i.p. both before sensitization and challenge",significantly lower
same,TNF-α in BALF,[11]; i.p. and i.n. before challenge,significantly lower
same,IL-4 in BALF,"[11]; i.p. and i.n. before challenge, i.p. both before sensitization and challenge",significantly lower
same,inflammation in lung histology,[11]; treated i.p. before sensitizations or before challenges,no inflammation was observed
same,"appearance, behavior, diarrhea, weight loss","[12]; all 11 days of experiment, all treated mice","normal appearance and behavior, and no diarrhea or weight loss"
same,colons normal in color and thickness,[12]; day 11,50%
same,colons with lesions,[12]; day 11,None
same,"macroscopic inflammation symptoms of colon, spleen and liver",[12]; day 11,reduced
same,treated mice with spleen and liver normal in size and colorization,[12]; day 11,75%
same,colitis symptoms,[12]; i.p. 200 μg at days 1 and 5,reduced the colitis symptoms
same,LPS-induced effects,[13],successfully reduced the LPS-induced effects
CISLTEWSMWYRH [B11 peptide with an additional cysteine residue at the amino terminus],binding properties to ManLAM-binding antibodies,[3]; peptide with extra cysteine at amino terminus,maintained binding properties
FITC-conjugated B11 peptide: B11 peptide conjugated to FITC (ISLTEWSMWYRH; also: FITC conjugated),binding to macrophages in presence of D-mannose,"[14]; FACS, 0.125 M D-mannose",inhibited by D-mannose
same,binding to RAW 264.7,[14]; confocal microscopy and FACS,bound the macrophage cell line RAW 264.7
same,binding to THP-1 in presence of D-mannose,[5]; 0.125 M D-mannose,inhibited by D-mannose

# From US8147837B2, “Use of mycobacterial mannosylated lipoglycans peptide mimotopes for treating inflammation” (priority 2004, dated 2012)
